pIC50: −log10 of the molar value.
Biological target: Carbonic anhydrase 2 (Bos taurus, UniProt P00921)
Assay: Carbonic Anhydrase (CA) II Inhibition Assay
Conditions: pH 7.2
Protocol: This was assay performed using buffer containing Tris and HEPES at the pH of 7.2-7.9 and a total concentration of 20 mM. 96-well plates were filled with 140 µL of Tris-HEPES solution, 20 µL of bovine erythrocyte carbonic anhydrase II solution (0.1-0.2 mg/2000 mL), and 20 µL of 0.7 mM para-nitrophenyl acetate (diluted in ethanol). Test compounds were incubated at 25-28 °C for 15 min prior to addition of para-nitrophenyl acetate, which starts the reaction. The reaction was allowed to take place for 30 min at 25-28 °C. All compounds tested in triplicate at different concentration. Amount of product that forms during the reaction monitored at 400 nm after 30 min.

Carbonic anhydrase 2, sequence (P00921 whole entry): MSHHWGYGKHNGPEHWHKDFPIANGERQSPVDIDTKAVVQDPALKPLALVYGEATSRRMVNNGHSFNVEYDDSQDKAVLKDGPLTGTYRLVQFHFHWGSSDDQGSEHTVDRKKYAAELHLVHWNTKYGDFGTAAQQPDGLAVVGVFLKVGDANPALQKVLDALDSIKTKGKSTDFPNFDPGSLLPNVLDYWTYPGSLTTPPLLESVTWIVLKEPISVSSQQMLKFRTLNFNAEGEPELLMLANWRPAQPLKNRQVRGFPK

`S=C(Nc1ccc(C(c2c[nH]c3ccccc23)c2c[nH]c3ccccc23)cc1)Nc1cccc(Br)c1` and `S=C(Nc1ccc(C(c2c[nH]c3ccccc23)c2c[nH]c3ccccc23)cc1)Nc1cccc(Cl)c1` [Name not given] are within 0.2 log units of each other in pIC50: 3.88 for the first, 3.95 for the second.

`Cc1cccc2c(C(c3ccc(NC(=S)Nc4ccc([N+](=O)[O-])cc4)cc3)c3c[nH]c4c(C)cccc34)c[nH]c12` [1-(4-(Bis(7-methyl-1H-indol-3-yl)methyl)phenyl)-3-(4-nitrophenyl)thiourea (3u)] and `O=[N+]([O-])c1ccc(NC(=S)Nc2ccc(C(c3c[nH]c4ccccc34)c3c[nH]c4ccccc34)cc2)cc1` [Name not given] are within 0.2 log units of each other in pIC50: 4.36 for the first, 4.34 for the second.

Going from `O=[N+]([O-])c1ccc(NC(=S)Nc2cccc(C(c3c[nH]c4ccccc34)c3c[nH]c4ccccc34)c2)cc1` [1-(4-Nitrophenyl)-3-(3-(di(1H-indol-3-yl)methyl)phenyl)thiourea (4d)] to `S=C(Nc1ccc(C(c2c[nH]c3ccccc23)c2c[nH]c3ccccc23)cc1)Nc1cc(Cl)ccc1Cl` [Name not given], the pIC50 falls from 4.48 to 4.17 (0.31 log units).

First: CCOC(=O)NC(=S)Nc1ccc(C(c2c[nH]c3ccc(Br)cc23)c2c[nH]c3ccc(Br)cc23)cc1 [Name not given]
Second: CCOC(=O)NC(=S)Nc1ccc(C(c2c[nH]c3ccc(Cl)cc23)c2c[nH]c3ccc(Cl)cc23)cc1 [Name not given]
The pIC50 of the first is 0.29 log units higher: 4.15 for the first, 3.86 for the second. The first is the more potent here.

`O=[N+]([O-])c1ccc(NC(=S)Nc2ccc(C(c3c[nH]c4ccc(Br)cc34)c3c[nH]c4ccc(Br)cc34)cc2)cc1` [Name not given] and `O=[N+]([O-])c1ccc(NC(=S)Nc2ccc(C(c3c[nH]c4ccc(Cl)cc34)c3c[nH]c4ccc(Cl)cc34)cc2)cc1` [Name not given] are within 0.2 log units of each other in pIC50: 4.49 for the first, 4.40 for the second.

`S=C(Nc1ccc(C(c2c[nH]c3ccc(Br)cc23)c2c[nH]c3ccc(Br)cc23)cc1)Nc1cc(Cl)ccc1Cl` [Name not given] and `S=C(Nc1ccc(C(c2c[nH]c3ccc(Br)cc23)c2c[nH]c3ccc(Br)cc23)cc1)Nc1cccc(Cl)c1` [Name not given] are within 0.2 log units of each other in pIC50: 4.48 for the first, 4.37 for the second.

Going from `S=C(Nc1ccc(C(c2c[nH]c3ccc(Br)cc23)c2c[nH]c3ccc(Br)cc23)cc1)Nc1cccc(Br)c1` [Name not given] to `S=C(Nc1ccc(C(c2c[nH]c3ccc(Cl)cc23)c2c[nH]c3ccc(Cl)cc23)cc1)Nc1cccc(Cl)c1` [Name not given], the pIC50 falls from 4.52 to 4.26 (0.26 log units).

`S=C(Nc1ccc(C(c2c[nH]c3ccc(Cl)cc23)c2c[nH]c3ccc(Cl)cc23)cc1)Nc1cc(Cl)ccc1Cl` [Name not given] gave a pIC50 of 3.86.
